Results: ChEMBL document CHEMBL5724806, “Unraveling interindividual differences and functional consequences of gut microbial metabolism of immunosuppressants” (2024)

How the values were obtained:
Type in all cases: ADME
[1] = The drug is tested on Capnocytophaga ochracea strain: DSM7271 for biotransformation under anaerobic condition. The drug concentrations were measured over 6 timepoints collected between 0 and 12 hours of incubation by liquid-chromatography-coupled mass spectrometry (LC–MS); parameters: dose 5 uM, timepoint 0, 1.5, 3, 6, 9, 12 hours; details: 5 µM
[2] = The drug is tested on Gemella haemolysans strain: DSM107751 for biotransformation under anaerobic condition. The drug concentrations were measured over 6 timepoints collected between 0 and 12 hours of incubation by liquid-chromatography-coupled mass spectrometry (LC–MS); parameters: dose 5 uM, timepoint 0, 1.5, 3, 6, 9, 12 hours; details: 5 µM
[3] = The drug is tested on Lactobacillus reuteri strain: DSM20016 for biotransformation under anaerobic condition. The drug concentrations were measured over 6 timepoints collected between 0 and 12 hours of incubation by liquid-chromatography-coupled mass spectrometry (LC–MS); parameters: dose 5 uM, timepoint 0, 1.5, 3, 6, 9, 12 hours; details: limosilactobacillus reuteri, 5 µM
[4] = The drug is tested on Roseburia intestinalis strain: DSM14610 for biotransformation under anaerobic condition. The drug concentrations were measured over 6 timepoints collected between 0 and 12 hours of incubation by liquid-chromatography-coupled mass spectrometry (LC–MS); parameters: dose 5 uM, timepoint 0, 1.5, 3, 6, 9, 12 hours; details: 5 µM
[5] = The drug is tested on Streptococcus salivarius strain: DSM20560 for biotransformation under anaerobic condition. The drug concentrations were measured over 6 timepoints collected between 0 and 12 hours of incubation by liquid-chromatography-coupled mass spectrometry (LC–MS); parameters: dose 5 uM, timepoint 0, 1.5, 3, 6, 9, 12 hours; details: 5 µM
[6] = The drug is tested on Escherichia coli strain: DSM27469 for biotransformation under anaerobic condition. The drug concentrations were measured over 6 timepoints collected between 0 and 12 hours of incubation by liquid-chromatography-coupled mass spectrometry (LC–MS); parameters: dose 5 uM, timepoint 0, 1.5, 3, 6, 9, 12 hours; details: 5 µM
[7] = The drug is tested on Bifidobacterium longum strain: DSM20088 for biotransformation under microaerobic condition. The drug concentrations were measured over 6 timepoints collected between 0 and 12 hours of incubation by liquid-chromatography-coupled mass spectrometry (LC–MS); parameters: dose 5 uM, timepoint 0, 1.5, 3, 6, 9, 12 hours; details: 5 µM
[8] = The drug is tested on Lactobacillus paracasei strain: ATCC27092 for biotransformation under microaerobic condition. The drug concentrations were measured over 6 timepoints collected between 0 and 12 hours of incubation by liquid-chromatography-coupled mass spectrometry (LC–MS); parameters: dose 5 uM, timepoint 0, 1.5, 3, 6, 9, 12 hours; details: lacticaseibacillus paracasei, 5 µM
[9] = The drug is tested on Lactobacillus reuteri strain: DSM20016 for biotransformation under microaerobic condition. The drug concentrations were measured over 6 timepoints collected between 0 and 12 hours of incubation by liquid-chromatography-coupled mass spectrometry (LC–MS); parameters: dose 5 uM, timepoint 0, 1.5, 3, 6, 9, 12 hours; details: limosilactobacillus reuteri, 5 µM
[10] = The drug is tested on Streptococcus anginosus strain: DSM20563 for biotransformation under microaerobic condition. The drug concentrations were measured over 6 timepoints collected between 0 and 12 hours of incubation by liquid-chromatography-coupled mass spectrometry (LC–MS); parameters: dose 5 uM, timepoint 0, 1.5, 3, 6, 9, 12 hours; details: 5 µM
[11] = The drug is tested on Streptococcus salivarius strain: DSM20560 for biotransformation under microaerobic condition. The drug concentrations were measured over 6 timepoints collected between 0 and 12 hours of incubation by liquid-chromatography-coupled mass spectrometry (LC–MS); parameters: dose 5 uM, timepoint 0, 1.5, 3, 6, 9, 12 hours; details: 5 µM
[12] = The drug is tested on Streptococcus sanguinis strain: DSM20567 for biotransformation under microaerobic condition. The drug concentrations were measured over 6 timepoints collected between 0 and 12 hours of incubation by liquid-chromatography-coupled mass spectrometry (LC–MS); parameters: dose 5 uM, timepoint 0, 1.5, 3, 6, 9, 12 hours; details: 5 µM
[13] = The drug is tested on Escherichia coli strain: DSM27469 for biotransformation under microaerobic condition. The drug concentrations were measured over 6 timepoints collected between 0 and 12 hours of incubation by liquid-chromatography-coupled mass spectrometry (LC–MS); parameters: dose 5 uM, timepoint 0, 1.5, 3, 6, 9, 12 hours; details: 5 µM
[14] = The drug is tested on the gut metagenome community of A-06 with ENA study accession number: PRJEB31790 for biotransformation under anaerobic condition. The drug concentrations were measured over 7 timepoints collected between 0 and 12 hours of incubation by liquid-chromatography-coupled mass spectrometry (LC–MS); parameters: dose 5 uM, timepoint 0, 0.75, 1.5, 3, 6, 9, 12 hours; details: 5 µM
[15] = The drug is tested on the gut metagenome community of T-02 with ENA study accession number: PRJEB31790 for biotransformation under anaerobic condition. The drug concentrations were measured over 7 timepoints collected between 0 and 12 hours of incubation by liquid-chromatography-coupled mass spectrometry (LC–MS); parameters: dose 5 uM, timepoint 0, 0.75, 1.5, 3, 6, 9, 12 hours; details: 5 µM
[16] = The drug is tested on the gut metagenome community of T-03 with ENA study accession number: PRJEB31790 for biotransformation under anaerobic condition. The drug concentrations were measured over 7 timepoints collected between 0 and 12 hours of incubation by liquid-chromatography-coupled mass spectrometry (LC–MS); parameters: dose 5 uM, timepoint 0, 0.75, 1.5, 3, 6, 9, 12 hours; details: 5 µM
[17] = The drug is tested on the gut metagenome community of T-04 with ENA study accession number: PRJEB31790 for biotransformation under anaerobic condition. The drug concentrations were measured over 7 timepoints collected between 0 and 12 hours of incubation by liquid-chromatography-coupled mass spectrometry (LC–MS); parameters: dose 5 uM, timepoint 0, 0.75, 1.5, 3, 6, 9, 12 hours; details: 5 µM
[18] = The drug is tested on the gut metagenome community of A-02 with ENA study accession number: PRJEB31790 for biotransformation under microaerobic condition. The drug concentrations were measured over 7 timepoints collected between 0 and 12 hours of incubation by liquid-chromatography-coupled mass spectrometry (LC–MS); parameters: dose 5 uM, timepoint 0, 0.75, 1.5, 3, 6, 9, 12 hours; details: 5 µM
[19] = The drug is tested on the gut metagenome community of A-05 with ENA study accession number: PRJEB31790 for biotransformation under microaerobic condition. The drug concentrations were measured over 7 timepoints collected between 0 and 12 hours of incubation by liquid-chromatography-coupled mass spectrometry (LC–MS); parameters: dose 5 uM, timepoint 0, 0.75, 1.5, 3, 6, 9, 12 hours; details: 5 µM
[20] = The drug is tested on the gut metagenome community of P-02 with ENA study accession number: PRJEB31790 for biotransformation under microaerobic condition. The drug concentrations were measured over 7 timepoints collected between 0 and 12 hours of incubation by liquid-chromatography-coupled mass spectrometry (LC–MS); parameters: dose 5 uM, timepoint 0, 0.75, 1.5, 3, 6, 9, 12 hours; details: 5 µM
[21] = The drug is tested on the gut metagenome community of P-04 with ENA study accession number: PRJEB31790 for biotransformation under microaerobic condition. The drug concentrations were measured over 7 timepoints collected between 0 and 12 hours of incubation by liquid-chromatography-coupled mass spectrometry (LC–MS); parameters: dose 5 uM, timepoint 0, 0.75, 1.5, 3, 6, 9, 12 hours; details: 5 µM
[22] = The drug is tested on the gut metagenome community of T-01 with ENA study accession number: PRJEB31790 for biotransformation under microaerobic condition. The drug concentrations were measured over 7 timepoints collected between 0 and 12 hours of incubation by liquid-chromatography-coupled mass spectrometry (LC–MS); parameters: dose 5 uM, timepoint 0, 0.75, 1.5, 3, 6, 9, 12 hours; details: 5 µM
[23] = The drug is tested on the gut metagenome community of T-02 with ENA study accession number: PRJEB31790 for biotransformation under microaerobic condition. The drug concentrations were measured over 7 timepoints collected between 0 and 12 hours of incubation by liquid-chromatography-coupled mass spectrometry (LC–MS); parameters: dose 5 uM, timepoint 0, 0.75, 1.5, 3, 6, 9, 12 hours; details: 5 µM
[24] = The drug is tested on the gut metagenome community of T-03 with ENA study accession number: PRJEB31790 for biotransformation under microaerobic condition. The drug concentrations were measured over 7 timepoints collected between 0 and 12 hours of incubation by liquid-chromatography-coupled mass spectrometry (LC–MS); parameters: dose 5 uM, timepoint 0, 0.75, 1.5, 3, 6, 9, 12 hours; details: 5 µM
[25] = The drug is tested on the gut metagenome community of T-04 with ENA study accession number: PRJEB31790 for biotransformation under microaerobic condition. The drug concentrations were measured over 7 timepoints collected between 0 and 12 hours of incubation by liquid-chromatography-coupled mass spectrometry (LC–MS); parameters: dose 5 uM, timepoint 0, 0.75, 1.5, 3, 6, 9, 12 hours; details: 5 µM

SMILES	Bacterial Biotransformation [1]	Bacterial Biotransformation [2]	Bacterial Biotransformation [3]	Bacterial Biotransformation [4]	Bacterial Biotransformation [5]	Bacterial Biotransformation [6]	Bacterial Biotransformation [7]	Bacterial Biotransformation [8]	Bacterial Biotransformation [9]	Bacterial Biotransformation [10]	Bacterial Biotransformation [11]	Bacterial Biotransformation [12]	Bacterial Biotransformation [13]	Bacterial Biotransformation [14]	Bacterial Biotransformation [15]	Bacterial Biotransformation [16]	Bacterial Biotransformation [17]	Bacterial Biotransformation [18]	Bacterial Biotransformation [19]	Bacterial Biotransformation [20]	also measured
CCOC(=O)C1=C(COCCN)NC(C)=C(C(=O)OC)C1c1ccccc1Cl (stereo not given) [AMLODIPINE]	Compound NOT metabolized	Compound NOT metabolized	Compound NOT metabolized	Compound NOT metabolized	Compound NOT metabolized	Compound NOT metabolized	Compound NOT metabolized	Compound NOT metabolized	Compound NOT metabolized	Compound metabolized	Compound NOT metabolized	Compound NOT metabolized	Compound NOT metabolized	Compound NOT metabolized	Compound NOT metabolized	Compound NOT metabolized	Compound NOT metabolized	Compound metabolized	Compound NOT metabolized	Compound NOT metabolized	Bacterial Biotransformation [21]: Compound NOT metabolized; Bacterial Biotransformation [22]: Compound NOT metabolized; Bacterial Biotransformation [23]: Compound NOT metabolized; Bacterial Biotransformation [24]: Compound NOT metabolized; Bacterial Biotransformation [25]: Compound NOT metabolized
CC(C)NCC(O)COc1ccc(CC(N)=O)cc1 (stereo not given) [ATENOLOL]	Compound NOT metabolized	Compound NOT metabolized	Compound NOT metabolized	Compound NOT metabolized	Compound NOT metabolized	Compound NOT metabolized	Compound NOT metabolized	Compound NOT metabolized	Compound NOT metabolized	Compound NOT metabolized	Compound NOT metabolized	Compound NOT metabolized	Compound NOT metabolized	Compound NOT metabolized	Compound NOT metabolized	Compound NOT metabolized	Compound NOT metabolized	Compound NOT metabolized	Compound NOT metabolized	Compound NOT metabolized	Bacterial Biotransformation [21]: Compound NOT metabolized; Bacterial Biotransformation [22]: Compound NOT metabolized; Bacterial Biotransformation [23]: Compound NOT metabolized; Bacterial Biotransformation [24]: Compound NOT metabolized; Bacterial Biotransformation [25]: Compound NOT metabolized
Cn1cnc([N+](=O)[O-])c1Sc1ncnc2nc[nH]c12 [AZATHIOPRINE]	Compound NOT metabolized	Compound NOT metabolized	Compound NOT metabolized	Compound metabolized	Compound metabolized	Compound metabolized	Compound metabolized	Compound NOT metabolized	Compound metabolized	Compound metabolized	Compound metabolized	Compound NOT metabolized	Compound metabolized	Compound metabolized	Compound NOT metabolized	Compound NOT metabolized	Compound NOT metabolized	Compound metabolized	Compound metabolized	Compound NOT metabolized	Bacterial Biotransformation [21]: Compound NOT metabolized; Bacterial Biotransformation [22]: Compound NOT metabolized; Bacterial Biotransformation [23]: Compound NOT metabolized; Bacterial Biotransformation [24]: Compound metabolized; Bacterial Biotransformation [25]: Compound NOT metabolized
